Test results from PMC3969223, “Characterization of WZ4003 and HTH-01-015 as selective inhibitors of the LKB1-tumour-suppressor-activated NUAK kinases” (Biochemical Journal, 2013).
pIC50: −log10 of the molar value. “And” between values parts separate entries of the source, which are not always exact repeats. Identical values can stand only once.

Tests used:
NUAK1[A195T] = molecular target: T1, NUAK1[A195T] (Homo sapiens, UniProt O60285, A195T); assay: GST–NUAK1[A195T] Sakamototide peptide kinase assay; assay type: biochemical; conditions: for pIC50: 200 μM Sakamototide, 100 μM [γ-32P]ATP; for Reduction of potency (resistance) by the NUAK1 A195T mutation: NUAK1[A195T] versus wild-type NUAK1
T1 construct: made in house; host or cells: HEK-293 cells, transient transfection of pEBG2T construct
T1 sequence (O60285 1-661 A195T): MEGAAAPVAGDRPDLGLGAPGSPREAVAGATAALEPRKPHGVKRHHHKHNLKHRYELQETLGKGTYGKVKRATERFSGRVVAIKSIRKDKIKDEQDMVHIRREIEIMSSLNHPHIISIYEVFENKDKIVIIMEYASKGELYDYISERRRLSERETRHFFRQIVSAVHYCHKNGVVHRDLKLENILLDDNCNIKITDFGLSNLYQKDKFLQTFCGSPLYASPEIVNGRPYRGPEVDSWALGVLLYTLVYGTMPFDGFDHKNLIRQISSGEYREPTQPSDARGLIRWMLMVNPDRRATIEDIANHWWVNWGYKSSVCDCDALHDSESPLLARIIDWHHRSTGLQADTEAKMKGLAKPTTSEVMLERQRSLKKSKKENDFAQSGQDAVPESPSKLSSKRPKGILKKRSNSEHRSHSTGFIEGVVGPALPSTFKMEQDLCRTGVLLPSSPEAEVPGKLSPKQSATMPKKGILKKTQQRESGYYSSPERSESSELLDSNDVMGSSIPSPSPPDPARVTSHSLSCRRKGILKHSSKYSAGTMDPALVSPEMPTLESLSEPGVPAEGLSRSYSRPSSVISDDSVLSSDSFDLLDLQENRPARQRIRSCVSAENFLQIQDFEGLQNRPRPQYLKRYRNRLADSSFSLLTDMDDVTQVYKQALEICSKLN
Method: Active GST–NUAK1, GST–NUAK1[A195T] and GST–NUAK2 enzymes were purified using glutathione–Sepharose from HEK-293 cell lysates 36–48 h following the transient transfection of pEBG2T mammalian constructs expressing N-terminal GST-tagged NUAK1, NUAK1[A195T] or NUAK2. For peptide kinase assays, 96-well plates were used, and each reaction was performed in triplicate. Each reaction was set up in a total volume of 50 μl containing 100 ng of NUAK1 (wild-type or A195T mutant) or NUAK2 in 50 mM Tris/HCl (pH 7.5), 0.1 mM EGTA, 10 mM magnesium acetate, 200 μM Sakamototide, 0.1 mM [γ-^32P]ATP (450–500 c.p.m./pmol) and the indicated concentrations of inhibitors dissolved in DMSO. After incubation for 30 min at 30°C, reactions were terminated by adding 25 mM (final) EDTA to chelate the magnesium. Then, 40 μl of the reaction mix was spotted on to P81 paper and immersed in 50 mM orthophosphoric acid. Samples were washed three times in 50 mM orthophosphoric acid followed by a single acetone rinse and air drying. The incorporation of [γ-^32P]ATP into Sakamototide was quantified by Cerenkov counting. The values were expressed as a percentage of the DMSO control. IC50 curves were developed and IC50 values were calculated using GraphPad Prism software.

[1] = tested on: MYPT1 Ser445 phosphorylation; assay: MYPT1 Ser445 phosphorylation on EDTA-induced detachment, HEK-293; assay type: cell-based, human; conditions: HEK-293, 16 h; for Suppression of MYPT1 Ser445 phosphorylation (in words): HTH-01-015 at 10 μM
Method: HEK (human embryonic kidney)-293 and U2OS cells were cultured in DMEM (Dulbecco's modified Eagle's medium) supplemented with 10% FBS, 2 mM glutamine and 1×antibacterial/antimycotic solution. NUAK1^+/+ and NUAK1^−/− MEFs were cultured in DMEM supplemented with 10% (v/v) FBS and 2 mM glutamine, 1×antibacterial/antimycotic solution, 1% (v/v) non-essential amino acids and 1% (v/v) sodium pyruvate. HEK-293 Flp/In T-Rex cell lines were cultured in DMEM supplemented with 10% (v/v) FBS and 2 mM glutamine, 1×antibacterial/antimycotic solution, 100 μg/ml hygromycin and 15 μg/ml blasticidin. Supplementing the culture medium with 0.1 μg/ml doxycycline for 16–24 h induced protein expression in the HEK-293 Flp/In T-Rex cells. Cell counting was carried out using Invitrogen Countess following the manufacturer's protocol. A cell-detachment assay was carried out on HEK-293 cells using PBS-EDTA-based cell dissociation buffer as described previously. An inhibitor dose-dependence assay was carried out by treating the cells with various concentrations of the inhibitors as indicated in the Figure legends. The inhibitors were dissolved in DMSO and the total concentration of DMSO in the culture media never exceeded 1%. Transient transfections of HEK-293 cells were carried out using PEI [24]. Stable transfections were carried out in HEK-293 Flp/In T-Rex cells (Invitrogen) following the manufacturer's protocol. Lentivirus-mediated knock down of NUAK1 was carried out in U2OS cells using shRNA constructs as described previously. Post-treatment and/or transfection, cells were lysed in lysis buffer containing 50 mM Tris/HCl (pH 7.5), 1 mM EGTA, 1 mM EDTA, 1% Triton X-100, 50 mM NaF, 10 mM sodium 2-glycerophosphate, 5 mM sodium pyrophosphate, 1 mM sodium orthovanadate, 0.27 M sucrose, 1 mM benzamidine (added before lysis), 1 mM PMSF (added before lysis) and 0.1% 2-mercaptoethanol (added before lysis). Lysates were clarified by centrifugation at 16000 g for 15 min at 4°C and either used for further experiments or snap-frozen in liquid nitrogen and stored at −80°C. Protein estimation was carried out using the Bradford method with BSA as a standard.
Figure 5 HTH-01-015 and WZ4003 inhibit MYPT1 Ser^445 phosphorylation in vivo (A) HEK-293 cells were treated in the absence (DMSO) or presence of the indicated concentrations of WZ4003 over 16 h. Cell medium was then replaced with either normal DMEM containing no EDTA-PBS-based cell dissociation buffer (−) or EDTA-PBS-based cell dissociation buffer (+) containing the same concentration of WZ4003 that the cells were previously incubated in. Cell detachment was induced with gentle tapping of the plates followed by gentle centrifugation at 70 g for 3 min. Cells were lysed immediately after removal of the supernatant. Endogenous MYPT1 was immunoprecipitated from 0.5 mg of the cell lysates. The immunoprecipitates were immunoblotted for the detection of p-Ser^445 MYPT1 and total MYPT1. The cell lysates were subjected to immunoblotting for the detection of p-Ser^79 ACC and total ACC. Similar results were obtained in three separate experiments. (B) As in (A) except for the HTH-01-015 inhibitor was used. (C–F) As above except that HEK-293 Flp/In T-Rex cells stably expressing the indicated wild-type HA-tagged NUAK1 or drug-resistant HA-tagged NUAK1[A195T] were used. Similar results were obtained in three separate experiments for all data shown on this Figure.

Row | Compound | pIC50 (NUAK1[A195T]) | Reduction of potency (resistance) by the NUAK1 A195T mutation (NUAK1[A195T]) | Inhibitor concentration for maximal suppression of MYPT1 Ser445 phosphorylation [1] [µM] | Suppression of MYPT1 Ser445 phosphorylation (in words) [1]
1 | Cc1nc(Nc2cnn(C3CCNCC3)c2)nc2c1N(C)C(=O)c1cc3ccccc3cc1N2C [HTH-01-015] | 5.23 | ~ 50 fold and ~ 60 fold | 3 to 10 | only led to a partial inhibition
2 | CCC(=O)Nc1cccc(Oc2nc(Nc3ccc(N4CCN(C)CC4)cc3OC)ncc2Cl)c1 [WZ4003] | 6.05 | ~ 50 fold and 45 fold | 3 to 10 | suppressed MYPT1 phosphorylation in a dose-dependent manner
3 | CN1C(=O)c2ccccc2N(C)c2nc(Nc3cnn(C4CCNCC4)c3)ncc21 [XMD-17-51] | 6.22 | > 50 fold |  | only partially suppressed
4 | CN1C(=O)c2cc3ccccc3cc2N(C)c2nc(Nc3cnn(C4CCNCC4)c3)ncc21 [XMD-18-42] | 5.82 | > 50 fold |  | only partially suppressed
